Reference: PMC8851638 (ACS Omega, 2022)
In brackets after ≈: the same amount, converted by molar mass. Several values for one entry are separate records, joined by “and”; a condition that tells them apart may be missing. Identical values can stand only once.

Assays:
[1] = system: C. albicans100 (MDR00100); test: Agar well-diffusion antimicrobial sensitivity assay; type: cell-based, Candida albicans; conditions: Candida albicans, read-out: Inhibition Zone (IZ)
[2] = system: C. albicans200 (MDR00200); test: as above; type: cell-based, Candida albicans; conditions: Candida albicans, read-out: Inhibition Zone (IZ)
[3] = system: C. albicans100 (MDR00100); test: MIC and MFC by broth microdilution; type: cell-based, Candida albicans
[4] = system: C. albicans200 (MDR00200); test: MIC and MFC by broth microdilution; type: cell-based, Candida albicans
C. albicans100 [5] = test: Single-step resistance selection; type: cell-based, Candida albicans; conditions: 4 × MIC, 48 h
C. albicans200 [6] = test: Single-step resistance selection; type: cell-based, Candida albicans; conditions: 4 × MIC, 48 h
RBCs = test: Hemolytic assay; type: cell-based; conditions: human RBCs; compounds 1.0 mg/mL; Triton X-100 0.1% v/v; 37 °C, 35 min
C. albicans100 [7] = test: Time-kill kinetic assay; type: cell-based, Candida albicans
C. albicans200 [8] = test: Time-kill kinetic assay; type: cell-based, Candida albicans
[9] = system: clinical pathogenic isolates; test: Single-step resistance selection, whole panel; type: cell-based; conditions: 4 × MIC

CC(=O)N1CCN(c2ccc(OCC3COC(Cn4ccnc4)(c4ccc(Cl)cc4Cl)O3)cc2)CC1 (stereo not shown) [KCA, Ketoconazole, reference compound]
zone of inhibition at 100000 µg/mL [1]: 21 ± 0.23 mm | zone of inhibition at 100000 µg/mL [2]: 24 ± 0.54 mm | MIC (mean ± SEM) ([3]; C. albicans100, broth microdilution): 0.49 ± 0.3 µg/mL (≈ 0.922 µM) | MFC/MIC ([3]; C. albicans100, ratio in parentheses): 1 | MIC ([3]; Candida albicans, read-out: MIC (mean ± SEM), C. albicans100, broth microdilution): 0.49 µg/mL (≈ 0.922 µM) | MFC/MIC ([4]; C. albicans200, ratio in parentheses): 0.5 | MIC ([4]; Candida albicans, read-out: MIC (mean ± SEM), C. albicans200, broth microdilution): 0.45 ± 0.3 µg/mL (≈ 0.847 µM) | Single-step resistance frequency (mutation frequency) (C. albicans100 [5]): 3.42 × 10^–9 | Single-step resistance frequency (mutation frequency) (C. albicans200 [6]): 3.19 × 10^–8 | %lysis of RBCs (RBCs): 15.38% and 15.38 ± 0.32% | time of reduction in the colony-forming units (C. albicans100 [7]): 48 h | time of reduction in the colony-forming units (C. albicans200 [8]): 48 h | mutation frequency, range over panel [9]: 3.19 × 10^–8 to 3.42 × 10^–9
